Experimental data from paper PMC6679423 (International Journal of Molecular Sciences, 2019).
Marks after values point to notes of the source that are not given here.

What was measured:
Type in all cases: in vitro ADME
human hepatic microsomes = test: Correlation of CYP- and FMO-linked activities with vandetanib metabolite formation in human hepatic microsomes; details: 12 human liver microsomal samples; for Correlation coefficient (r) of metabolite amount with CYP2B6 activity: (S)-mephenytoin-N-demethylase; for Correlation coefficient (r) of metabolite amount with CYP2A6 activity: coumarine-7-hydroxylase; for Correlation coefficient (r) of metabolite amount with CYP2C8 activity: paclitaxel-6α-hydroxylase; for Correlation coefficient (r) of metabolite amount with CYP3A4 activity: testosterone-6β-hydroxylase
Protocol: Vandetanib was from LC Laboratories (Woburn, MA, USA). Ketoconazole, NADPH, methimazol and other chemicals were all purchased from Sigma-Aldrich (St. Louis, MO, USA). The purity of all chemicals met the standards of American Chemical Society, unless noted otherwise. All animal experiments were conducted in accordance with the Regulations for the Care and Use of Laboratory Animals (311/1997, Ministry of Agriculture, Czech Republic), which follows the Declaration of Helsinki. Male Wistar rats (~125–150 g; AnLab, Czech Republic), male C57BL/6 mice ([…]; CXR Bioscience Ltd., Dundee, UK), and male New Zealand rabbits (2.5–3 kg; AnLab, Czech Republic) were employed as animal models. Animals were placed in cages in temperature- and humidity-controlled rooms, acclimatized for five days and maintained at 22 °C with a 12 h light/dark period. Standardized diet and water were provided ad libitum. Rats, mice and rabbits used to prepare microsomal fraction from untreated animals were sacrificed by cervical dislocation, livers snap-frozen in liquid nitrogen and stored at −80 °C until further processing (see below). For controls, livers of the animals were removed immediately after sacrifice, divided into small pieces (~1 g), snap-frozen in liquid nitrogen, and stored at −80 °C until isolation of microsomal fractions. Pooled microsomes were used for all in vitro experiments in the present study and prepared from 10 livers/group for all animal species following established protocols. Microsomal fractions were stored at −80 °C until analysis. Protein concentrations in the microsomal fractions were assessed using the bicinchoninic acid protein assay with bovine serum albumin as a standard. Male human hepatic microsomes (pooled sample) (sample LOT: 3043885) were from Gentest Corp. (Woburn, MA, USA). Microsomes from livers of twelve human donors were obtained from Gentest Corp. (Woburn, MA, USA) (cat. no. HG43–1, HG103, HG74, HG93, HG24, HG27, HG23, HG32, HK31, HK34, HG03, and HG42). Each human microsomal sample has been characterized for CYP, FMO and protein contents and specific CYP activities by Gentest Corp. We reanalyzed each microsomal preparation for specific CYP, NADPH:CYP reductase (POR) and FMO activities by assays described in the protocols of Gentest Corp. Our data were similar to those reported by Gentest Corp. in their specification sheets. The content of CYP, specific CYP and FMO activities in each human hepatic microsomes [phenacetin-O-deethylation (CYP1A2), coumarin-7-hydroxylation (CYP2A6), (S)-mephenytoin-N-demethylase (CYP2B6), paclitaxel-6α-hydroxylation (CYP2C8), diclofenac-4’-hydroxylation (CYP2C9), (S)-mephenytoin-4′-hydroxylation (CYP2C19), bufuralol-1’-hydroxylation (CYP2D6), chlorzoxazone-6-hydroxylation (CYP2E1), testosterone-6β-hydroxylation (CYP3A4), lauric acid-12-hydroxylation (CYP4A), methyl-p-tolyl sulfide oxidase (FMO)] are shown in Table 2. Human recombinant enzymes were used in the forms of Supersomes™ and obtained from Gentest Corp. In Supersomes™ microsomal fractions were isolated from insect cells that are transfected with baculovirus constructs containing cDNA of human CYP enzymes (CYP1A1/2, 1B1, 2A6, 2B6, 2C8/9/18/19/, 2D6, 2E1, 3A4). These Supersomes™ also express NADPH:CYP oxidoreductase (POR). However, because they are microsomes (particles of broken endoplasmic reticulum), other enzymes (proteins) of the endoplasmic reticulum membrane (like NADH:cytochrome b5 reductase and cytochrome b5) are also expressed at basal levels in these Supersomes™. We also utilized Supersomes™ which over-expressed cytochrome b5, in a molar ratio of CYP to cytochrome b5 of 1 to 5. In Supersomes™ where cytochrome b5 was not over-expressed (see above) pure cytochrome b5 was added to reach a molar ratio of CYP to cytochrome b5 of 1 to 5. Reconstitution of Supersomes™ with purified cytochrome b5 was performed as described previously. […]

human recombinant CYP3A4 = target: T1, human recombinant CYP3A4 (Homo sapiens, UniProt P08684); test: Vandetanib oxidation by human recombinant CYP3A4 (Supersomes)
T1 construct: purchased Gentest Corp; host or cells: insect cells (baculovirus)
Protocol: (§1) The purity of all chemicals met the standards of American Chemical Society, unless noted otherwise. […] Animals were placed in cages in temperature- and humidity-controlled rooms, acclimatized for five days and maintained at 22 °C with a 12 h light/dark period. Standardized diet and water were provided ad libitum. Rats, mice and rabbits used to prepare microsomal fraction from untreated animals were sacrificed by cervical dislocation, livers snap-frozen in liquid nitrogen and stored at −80 °C until further processing (see below). For controls, livers of the animals were removed immediately after sacrifice, divided into small pieces (~1 g), snap-frozen in liquid nitrogen, and stored at −80 °C until isolation of microsomal fractions. Pooled microsomes were used for all in vitro experiments in the present study and prepared from 10 livers/group for all animal species following established protocols. Microsomal fractions were stored at −80 °C until analysis. Protein concentrations in the microsomal fractions were assessed using the bicinchoninic acid protein assay with bovine serum albumin as a standard. […] Microsomes from livers of twelve human donors were obtained from Gentest Corp. (Woburn, MA, USA) (cat. no. HG43–1, HG103, HG74, HG93, HG24, HG27, HG23, HG32, HK31, HK34, HG03, and HG42). […]

human recombinant CYP2D6 = target: T2, human recombinant CYP2D6 (Homo sapiens, UniProt P10635); test: Vandetanib oxidation by human recombinant CYP2D6 (Supersomes)
T2 construct: purchased Gentest Corp; host or cells: insect cells (baculovirus)
Protocol: as §1

human recombinant CYP2C8 = test: Vandetanib oxidation by human recombinant CYP2C8 (Supersomes)
Protocol: Vandetanib was from LC Laboratories (Woburn, MA, USA). Ketoconazole, NADPH, methimazol and other chemicals were all purchased from Sigma-Aldrich (St. Louis, MO, USA). The purity of all chemicals met the standards of American Chemical Society, unless noted otherwise. All animal experiments were conducted in accordance with the Regulations for the Care and Use of Laboratory Animals (311/1997, Ministry of Agriculture, Czech Republic), which follows the Declaration of Helsinki. Male Wistar rats (~125–150 g; AnLab, Czech Republic), male C57BL/6 mice ([…]; CXR Bioscience Ltd., Dundee, UK), and male New Zealand rabbits (2.5–3 kg; AnLab, Czech Republic) were employed as animal models. Animals were placed in cages in temperature- and humidity-controlled rooms, acclimatized for five days and maintained at 22 °C with a 12 h light/dark period. Standardized diet and water were provided ad libitum. Rats, mice and rabbits used to prepare microsomal fraction from untreated animals were sacrificed by cervical dislocation, livers snap-frozen in liquid nitrogen and stored at −80 °C until further processing (see below). […] Protein concentrations in the microsomal fractions were assessed using the bicinchoninic acid protein assay with bovine serum albumin as a standard. […]

human liver microsomes = test: Vandetanib metabolite formation by hepatic microsomes of 12 human donors
[1] = without consideration of cytochrome b5

T2 sequence (P10635 whole entry): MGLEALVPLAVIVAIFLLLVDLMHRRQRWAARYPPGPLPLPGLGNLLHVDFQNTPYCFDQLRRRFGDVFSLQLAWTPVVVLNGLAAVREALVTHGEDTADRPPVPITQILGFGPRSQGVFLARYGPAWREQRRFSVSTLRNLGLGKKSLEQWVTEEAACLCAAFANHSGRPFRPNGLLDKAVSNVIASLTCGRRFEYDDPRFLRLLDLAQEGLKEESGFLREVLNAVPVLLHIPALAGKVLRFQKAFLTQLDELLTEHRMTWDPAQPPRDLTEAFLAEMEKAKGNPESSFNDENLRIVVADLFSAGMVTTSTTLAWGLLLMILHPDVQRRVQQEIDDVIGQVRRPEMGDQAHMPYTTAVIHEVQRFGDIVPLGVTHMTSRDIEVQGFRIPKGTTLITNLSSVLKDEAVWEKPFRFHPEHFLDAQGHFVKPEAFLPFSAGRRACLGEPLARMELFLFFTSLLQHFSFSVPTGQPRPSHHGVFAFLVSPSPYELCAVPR
T1 sequence (P08684 2-503 limits assumed): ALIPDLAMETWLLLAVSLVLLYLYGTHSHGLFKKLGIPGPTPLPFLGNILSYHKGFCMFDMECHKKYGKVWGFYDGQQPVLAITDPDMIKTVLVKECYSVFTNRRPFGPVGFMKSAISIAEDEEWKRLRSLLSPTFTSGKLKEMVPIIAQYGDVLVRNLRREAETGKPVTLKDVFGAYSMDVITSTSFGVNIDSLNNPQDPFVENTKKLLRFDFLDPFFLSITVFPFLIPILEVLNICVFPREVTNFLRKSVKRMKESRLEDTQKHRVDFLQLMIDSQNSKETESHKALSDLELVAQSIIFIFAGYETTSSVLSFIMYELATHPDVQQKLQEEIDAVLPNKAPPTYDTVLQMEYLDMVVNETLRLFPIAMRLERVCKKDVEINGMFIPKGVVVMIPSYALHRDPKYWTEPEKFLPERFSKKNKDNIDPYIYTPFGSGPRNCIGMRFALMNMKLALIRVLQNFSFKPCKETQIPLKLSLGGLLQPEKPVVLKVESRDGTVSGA

COc1cc2c(Nc3ccc(Br)cc3F)ncnc2cc1OCC1CCNCC1 [N-desmethylvandetanib]
Correlation coefficient (r) of metabolite amount with Cyt b5 (human hepatic microsomes): −0.114 | Correlation coefficient (r) of metabolite amount with POR (human hepatic microsomes): 0.700 | Correlation coefficient (r) of metabolite amount with Total CYPs (human hepatic microsomes): 0.786 ** | Correlation coefficient (r) of metabolite amount with CYP2C19 activity (human hepatic microsomes; (S)-mephenytoin-4′-hydroxylase): −0.168 | Correlation coefficient (r) of metabolite amount with CYP2B6 activity (human hepatic microsomes): 0.826 | Correlation coefficient (r) of metabolite amount with CYP2B6 activity (human hepatic microsomes; listed as M1): 0.826 *** | Correlation coefficient (r) of metabolite amount with CYP2D6 activity (human hepatic microsomes; bufuralol-1′-hydroxylase): 0.165 | Correlation coefficient (r) of metabolite amount with CYP2E1 activity (human hepatic microsomes; chlorzoxazone-6-hydroxylase): 0.043 | Correlation coefficient (r) of metabolite amount with CYP2A6 activity (human hepatic microsomes): 0.778 | Correlation coefficient (r) of metabolite amount with CYP2A6 activity (human hepatic microsomes; listed as M1): 0.778 ** | Correlation coefficient (r) of metabolite amount with CYP2C9 activity (human hepatic microsomes; diclofenac-4′-hydroxylase): −0.034 | Correlation coefficient (r) of metabolite amount with FMO activity (human hepatic microsomes; methyl-p-tolyl sulfide oxidase): 0.270 | Correlation coefficient (r) of metabolite amount with CYP2C8 activity (human hepatic microsomes): 0.747 | Correlation coefficient (r) of metabolite amount with CYP2C8 activity (human hepatic microsomes; listed as M1): 0.747 ** | Correlation coefficient (r) of metabolite amount with CYP1A2 activity (human hepatic microsomes; phenacetin-O-deethylase): 0.018 | Correlation coefficient (r) of metabolite amount with CYP3A4 activity (human hepatic microsomes): 0.984 | Correlation coefficient (r) of metabolite amount with CYP3A4 activity (human hepatic microsomes; listed as M1): 0.984 *** | contribution of CYP3A4 to N-desmethylvandetanib formation in human liver (human recombinant CYP3A4; with cytochrome b5): ~ 99.6% | contribution of CYP3A4 to N-desmethylvandetanib formation in human liver (human recombinant CYP3A4; [1]): ~ 97.7% | effect of cytochrome b5 on N-desmethylvandetanib formation (human recombinant CYP2D6; CYP2D6 with vs without cytochrome b5): essentially no such effect | contribution of CYP2D6 to N-desmethylvandetanib formation in human liver (human recombinant CYP2D6; [1]): ~ 1.7% | fold increase of N-desmethylvandetanib formation by cytochrome b5 (human recombinant CYP2C8; CYP2C8 with vs without cytochrome b5): 1.6 fold | contribution of CYP2C8 to N-desmethylvandetanib formation in human liver (human recombinant CYP2C8; [1]): < 0.3% | N-desmethylvandetanib (M1) formed (human liver microsomes; human hepatic microsomal sample HK23): 4.137 peak area/(mg protein × min) | N-desmethylvandetanib (M1) formed (human liver microsomes; human hepatic microsomal sample HK27): 1.762 peak area/(mg protein × min)
